Laboratory results taken from patent publication US9434711B2 (Janssen Pharmaceutica, NV, priority 2007, dated 2016).
Read-outs that look alike come from different tables or passages of the source.

Biological target: canine TRPM8 (Canis lupus familiaris, UniProt Q1A7N1)
Test: In Vitro Canine TRPM8 Functional Assay (Ca2+ fluorescence, icilin activation)
Assay type: cell-based
Conditions: for IC50: read-out: IC50; for inhibition at 0.2 µM: read-out: % Inh @ 0.2; for inhibition at 0.5 µM: compound at 0.5 μM, read-out: % Inh @ 0.5
Outline: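 Canine TRPM8 stably expressed in HEK293; compound added 5 min before icilin challenge (~80% max response), with fluorescent Ca2+ signal tracked throughout.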

[1] = HEK293 cells stably expressing canine TRPM8, icilin activation, eight-point dose-response
[2] = compound at 0.2 μM, canine TRPM8, icilin activation
[3] = canine TRPM8, icilin activation

Sequence of canine TRPM8 (Q1A7N1 1-1104): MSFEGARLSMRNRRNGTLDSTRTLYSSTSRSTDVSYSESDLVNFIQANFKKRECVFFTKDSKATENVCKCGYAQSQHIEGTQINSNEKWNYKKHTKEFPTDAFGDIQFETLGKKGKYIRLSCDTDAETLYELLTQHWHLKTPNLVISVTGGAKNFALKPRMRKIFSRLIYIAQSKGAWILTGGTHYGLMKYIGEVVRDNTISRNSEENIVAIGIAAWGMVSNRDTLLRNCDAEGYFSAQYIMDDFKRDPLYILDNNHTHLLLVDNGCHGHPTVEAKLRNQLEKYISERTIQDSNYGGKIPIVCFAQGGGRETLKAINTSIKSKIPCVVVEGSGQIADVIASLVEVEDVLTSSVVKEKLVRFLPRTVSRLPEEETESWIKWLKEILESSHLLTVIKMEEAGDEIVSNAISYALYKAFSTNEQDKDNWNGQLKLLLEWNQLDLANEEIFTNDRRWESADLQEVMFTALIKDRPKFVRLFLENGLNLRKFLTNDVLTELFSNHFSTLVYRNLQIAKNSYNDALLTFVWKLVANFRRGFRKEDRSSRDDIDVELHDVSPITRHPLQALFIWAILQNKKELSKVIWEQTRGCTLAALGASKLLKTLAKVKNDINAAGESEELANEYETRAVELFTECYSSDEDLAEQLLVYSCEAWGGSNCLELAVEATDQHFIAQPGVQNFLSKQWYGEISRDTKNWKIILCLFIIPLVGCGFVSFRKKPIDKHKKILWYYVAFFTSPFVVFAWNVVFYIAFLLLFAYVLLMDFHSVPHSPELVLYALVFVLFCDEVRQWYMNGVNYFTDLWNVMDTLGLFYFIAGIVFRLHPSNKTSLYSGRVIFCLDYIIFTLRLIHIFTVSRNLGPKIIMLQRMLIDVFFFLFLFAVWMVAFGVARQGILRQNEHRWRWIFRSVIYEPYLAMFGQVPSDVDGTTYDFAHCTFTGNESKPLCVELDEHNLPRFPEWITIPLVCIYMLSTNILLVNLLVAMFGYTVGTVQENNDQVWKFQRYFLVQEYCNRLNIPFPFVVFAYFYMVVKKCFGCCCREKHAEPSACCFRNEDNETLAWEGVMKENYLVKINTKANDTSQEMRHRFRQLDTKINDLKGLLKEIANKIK

IC50 [1] [nM]	inhibition at 0.2 µM [2] [%]	Compound	other results
21	102	COC(=O)c1ccc(S(=O)(=O)N(Cc2ccc(F)c(C(F)(F)F)c2)c2sc3ccccc3c2C(C)=O)cc1 [Compound 313, N-(3-Acetyl-benzo[b]thiophen-2-yl)-N-(4-fluoro-3-trifluoromethyl-benzyl)-4-carbomethoxy-benzenesulfonamide]	–
19.1	100	O=S(=O)(c1cccc(-c2nnn[nH]2)c1)N(Cc1ccc(F)c(C(F)(F)F)c1)c1sc2ccccc2c1Br [Compound 576, N-(3-Bromo-benzo[b]thiophen-2-yl)-N-(4-fluoro-3-trifluoromethyl-benzyl)-3-(1H-tetrazol-5-yl)-benzenesulfonamide]	–
7.4	103	O=c1[nH]c(-c2ccc(S(=O)(=O)N(CCC3CC3)c3sc4ccccc4c3Br)cc2)no1 [Compound 626, N-(3-Bromo-benzo[b]thiophen-2-yl)-N-(cyclopropyl-ethyl)-4-(5-oxo-4,5-dihydro-[1,2,4]oxadiazol-3-yl)-benzenesulfonamide]	–
–	21	O=C(O)c1ccccc1S(=O)(=O)N(Cc1ccc(F)c(C(F)(F)F)c1)c1sc2ccccc2c1Cl [Compound 297, N-(3-Chloro-benzo[b]thiophen-2-yl)-N-(4-fluoro-3-trifluoromethyl-benzyl)-2-carboxy-benzenesulfonamide]	–
35	88	O=S(=O)(c1ccc(-c2nnn[nH]2)cc1)N(CCC1CC1)c1cc2ccccc2s1 [Compound 569, N-(Benzo[b]thiophen-2-yl)-N-(2-cyclopropyl-ethyl)-4-(1H-tetrazol-5-yl)-benzenesulfonamide]	–
–	100	O=c1[nH]c(-c2ccc(S(=O)(=O)N(CCCCC(F)(F)F)c3sc4ccccc4c3Br)cc2)no1 [Compound 583, N-(3-Bromo-benzo[b]thiophen-2-yl)-N-(5,5,5-trifluoro-pentyl)-4-(5-oxo-4,5-dihydro-[1,2,4]oxadiazol-3-yl)-benzenesulfonamide]	–
–	29	NS(=O)(=O)N(CCC(F)(F)F)c1sc2ccccc2c1Br [Compound 304, N-(3-Bromo-benzo[b]thiophen-2-yl)-N-(3,3,3-trifluoro-propyl)-sulfamide]	–
–	55	O=S(=O)(c1ccc(Br)cc1)N(CCCCC(F)(F)F)c1cc2ccccc2s1 [Compound 655, N-(Benzo[b]thiophen-2-yl)-4-bromo-N-(5,5,5-trifluoro-pentyl)-benzenesulfonamide]	–
–	33	Cc1c(N(CCC2CC2)S(=O)(=O)c2ccc(C(=O)N[C@H]3CCNC3)cc2)sc2ccccc12 [Compound 782, (S)-4-[(2-Cyclopropyl-ethyl)-(3-methyl-benzo[b]thiophen-2-yl)-sulfamoyl]-N-pyrrolidin-3-yl-benzamide]	–
18	98	Cc1c(N(Cc2ccc(OC(F)(F)F)cc2)S(C)(=O)=O)sc2ccccc12 [Compound 369, N-(3-Methyl-benzo[b]thiophen-2-yl)-N-(4-trifluoromethoxy-benzyl)-methanesulfonamide]	–
8.1	103	Nc1ccc(S(=O)(=O)N(CCCCC(F)(F)F)c2sc3ccccc3c2Cl)cc1 [Compound 666, 4-Amino-N-(3-chloro-benzo[b]thiophen-2-yl)-N-(5,5,5-trifluoro-pentyl)-benzenesulfonamide]	–
4	89	Cc1c(N(Cc2ccc(F)c(C(F)(F)F)c2)S(=O)(=O)c2ccc(C(C)(C)O)cc2)sc2ccccc12 [Compound 374, N-(3-Methyl-benzo[b]thiophen-2-yl)-N-(4-fluoro-3-trifluoromethyl-benzyl)-4-(1-hydroxy-1-methyl-ethyl)-benzenesulfonamide]	–
11.2	100	CS(=O)(=O)Nc1ccc(S(=O)(=O)N(Cc2ccc(F)c(C(F)(F)F)c2)c2sc3ccccc3c2Br)cc1 [Compound 660, N-(3-Bromo-benzo[b]thiophen-2-yl)-N-(4-fluoro-3-trifluoromethyl-benzyl)-4-methanesulfonylamino-benzenesulfonamide]	–
–	39.5	Cc1c(N(Cc2ccc(F)c(C(F)(F)F)c2)S(=O)(=O)c2ccc(C(=O)O)cc2)sc2cc(C(F)(F)F)ccc12 [Compound 557, N-(3-Methyl-6-trifluoromethyl-benzo[b]thiophen-2-yl)-N-(4-fluoro-3-trifluoromethyl-benzyl)-4-carboxy-benzenesulfonamide]	–

Second part, the compound before the results:

Compound	IC50 [1] [nM]	inhibition at 0.2 µM [2] [%]	other results
O=S(=O)(c1cccc(O)c1)N(Cc1ccc(F)c(C(F)(F)F)c1)c1sc2ccccc2c1Br [Compound 291, N-(3-Bromo-benzo[b]thiophen-2-yl)-N-(4-fluoro-3-trifluoromethyl-benzyl)-3-hydroxy-benzenesulfonamide]	5.8	101	–
O=S(=O)(c1ccc(O)cc1)N(Cc1ccc(F)c(C(F)(F)F)c1)c1sc2ccccc2c1Br [Compound 290, N-(3-Bromo-benzo[b]thiophen-2-yl)-N-(4-fluoro-3-trifluoromethyl-benzyl)-4-hydroxy-benzenesulfonamide]	5.3	103	–
Cc1c(N(Cc2ccc(OC(F)(F)F)cc2)S(=O)(=O)CCC(=O)O)sc2ccccc12 [Compound 795, N-(3-Methyl-benzo[b]thiophen-2-yl)-N-(4-trifluoromethoxy-benzyl)-2-carboxy-ethanesulfonamide]	–	–	inhibition at 0.2 µM (0.2 μM compound, HEK293 cells stably expressing canine TRPM8, icilin activation): 100%; IC50 (HEK293 cells stably expressing canine TRPM8, icilin activation, average of two or more determinations): 24.6 nM
O=S(=O)(c1ccccc1)N(Cc1ccccc1F)c1sc2ccccc2c1Br [Compound 166, N-(3-Bromo-benzo[b]thiophen-2-yl)-N-(2-fluoro-benzyl)-benzenesulfonamide]	11.4	–	inhibition at 0.5 µM [3]: 94%
O=S(=O)(c1ccccc1)N(CCN1CCOCC1)c1sc2ccccc2c1Cl [Compound 92, N-(3-Chloro-benzo[b]thiophen-2-yl)-N-(2-morpholin-4-yl-ethyl)-benzenesulfonamide]	68.2	79	–
O=C(O)c1ccc(S(=O)(=O)N(Cc2ccc(F)c(C(F)(F)F)c2)c2sc3ccccc3c2Cl)cc1 [Compound 294, N-(3-Chloro-benzo[b]thiophen-2-yl)-N-(4-fluoro-3-trifluoromethyl-benzyl)-4-carboxy-benzenesulfonamide]	1.8	99	–
Cn1cnc(S(=O)(=O)N(Cc2ccc(F)c(F)c2)c2cc3ccccc3s2)c1 [Compound 130, N-(Benzo[b]thiophen-2-yl)-N-(3,4-difluoro-benzyl)-1-methyl-1H-imidazole-4-sulfonamide]	104	–	inhibition at 0.5 µM [3]: 98%
CCS(=O)(=O)N(Cc1ccc(F)c(F)c1)c1sc2ccccc2c1Br [Compound 152, N-(3-Bromo-benzo[b]thiophen-2-yl)-N-(3,4-difluoro-benzyl)-ethanesulfonamide]	2.6	–	inhibition at 0.5 µM [3]: 95%
O=[N+]([O-])c1cccc(CN(c2cc3ccccc3s2)S(=O)(=O)c2ccccc2)c1 [Compound 51, N-(Benzo[b]thiophen-2-yl)-N-(3-nitro-benzyl)-benzenesulfonamide]	78	–	inhibition at 0.5 µM [3]: 98%
Cc1c(N(CC2CC2)S(=O)(=O)c2ccccc2)sc2ccccc12 [Compound 97, N-(Cyclopropylmethyl)-N-(3-methyl-benzo[b]thiophen-2-yl)-benzenesulfonamide]	14	96	–
CCCCN(c1sc2ccccc2c1Br)S(=O)(=O)c1ccc(N2CCOCC2)cc1 [Compound 559, N-(3-Bromo-benzo[b]thiophen-2-yl)-N-(butyl)-4-morpholine-benzenesulfonamide]	3.2	–	% Inh @ 0.2 (μM) [2]: 104.59%
C=CCN(c1cc2ccccc2s1)S(=O)(=O)c1ccccc1 [Compound 116, N-(Allyl)-N-(benzo[b]thiophen-2-yl)-benzenesulfonamide]	102	–	inhibition at 0.5 µM [3]: 98%
COC(=O)c1ccc(S(=O)(=O)N(Cc2ccc(F)c(C(F)(F)F)c2)c2cc3ccccc3s2)cc1 [Compound 135, N-(Benzo[b]thiophen-2-yl)-N-(4-fluoro-3-trifluoromethyl-benzyl)-4-carbomethoxy-benzenesulfonamide]	–	18	–
CCCCN(c1sc2ccccc2c1C(C)O)S(=O)(=O)CC (stereo not drawn) [Compound 280, N-(Butyl)-N-[3-(1-hydroxy-ethyl)-benzo[b]thiophen-2-yl]-ethanesulfonamide]	–	87	–
COC(=O)c1ccccc1S(=O)(=O)N(Cc1ccc(F)c(C(F)(F)F)c1)c1cc2ccccc2s1 [Compound 139, N-(Benzo[b]thiophen-2-yl)-N-(4-fluoro-3-trifluoromethyl-benzyl)-2-carbomethoxy-benzenesulfonamide]	62	91	–
CCS(=O)(=O)N(CC1CC1)c1sc2ccccc2c1Br [Compound 262, N-(3-Bromo-benzo[b]thiophen-2-yl)-N-(cyclopropylmethyl)-ethanesulfonamide]	67	94	–
CS(=O)(=O)N(Cc1ccc(F)c(C(F)(F)F)c1)c1sc2ccccc2c1CO [Compound 215, N-(4-Fluoro-3-trifluoromethyl-benzyl)-N-(3-hydroxymethyl-benzo[b]thiophen-2-yl)-methanesulfonamide]	6	101	–
CC(=O)c1c(N(Cc2ccc(F)c(F)c2)S(=O)(=O)c2ccccc2)sc2ccccc12 [Compound 204, N-(3-Acetyl-benzo[b]thiophen-2-yl)-N-(3,4-difluoro-benzyl)-benzenesulfonamide]	6	–	inhibition at 0.5 µM [3]: 96%
COc1c(Cl)ccc2c(Cl)c(N(Cc3ccc(F)c(F)c3)S(=O)(=O)c3ccccc3)sc12 [Compound 144, N-(3,6-Dichloro-7-methoxy-benzo[b]thiophen-2-yl)-N-(3,4-difluoro-benzyl)-benzenesulfonamide]	–	–	inhibition at 0.5 µM [3]: 62%
